Measured values: patent US20210062159A1, “CELL AGGREGATION PROMOTER” (KANEKA CORPORATION, priority 2017, published 2021)

Key:
Format in all cases: cell-based
[1] = test system: human iPS cells (TkDN4-M cell lines); assay: Cell yield at Day 5 of suspension culture (trypan blue, hemocytometer); settings: Day 5 of culture, aggregates formed with 10 μM CCG-1423, FIG. 5
Procedure: A cell suspension was prepared in the same manner as in Example 2, and separately, the cell aggregation promoter was adjusted so that the final concentration of CCG-1423 (same as above) was 4.55 mg/mL (10 mM), then the adjusted cell aggregation promoter was added to the cell suspension so that the final concentration of CCG-1423 was 10 μM, and the cells were seeded at a ratio of 4 mL/well in a 6-well plate for suspension culture (Sumitomo Bakelite Co., Ltd.). […] While 208 cell aggregates in images obtained at Day 1 of culture being observed and compared using a micrograph scale, the width (referred to as “φ”) of the widest portion of each cell aggregate was measured, distribution thereof was examined, and average±standard deviation was calculated. The concentration of glucose contained in the culture supernatant collected at the time of culture medium exchange was measured with biosensor BF-5iD (Prince Measuring Equipment Co., Ltd.) to calculate glucose consumption.
In addition, at Day 5 of culture, cell aggregates were collected, dispersed with Accutase, and then suspended in Essential 8™ culture medium containing 5 mg/mL BSA. A portion of this cell suspension was stained with trypan blue and the number of cells was counted. […] The resulting cells were analyzed on FACSVerse. […]
Cell yields were also measured at Day 5 of culture. […]

[2] = test system: human iPS cells (TkDN4-M cell lines); assay: Percentage of cells positive for undifferentiation markers (SOX2, OCT4, Nanog), flow cytometry; settings: Day 5 of culture, aggregates produced in medium comprising CCG-1423, FIG. 6
Procedure: In addition, at Day 5 of culture, cell aggregates were collected, dispersed with Accutase, and then suspended in Essential 8™ culture medium containing 5 mg/mL BSA. A portion of this cell suspension was stained with trypan blue and the number of cells was counted. After the above cell suspensions were centrifuged at 300 g for 3 minutes, the supernatant was then removed, and the cells were washed with PBS (phosphate buffered saline). Next, the cells were fixed with 4% paraformaldehyde (Wako Pure Chemical Industries, Ltd.) at room temperature for 20 minutes, then washed 3 times with PBS. After cells were resuspended with 300 μL of PBS, 3 mL of cold methanol was added while stirring with voltex, and permeabilized at −20° C. overnight or more. After 3 washes with 3% FBS (fetal bovine serum)/PBS, cells were resuspended with 3% FBS (fetal bovine serum)/PBS and blocked at room temperature for 30 minutes to 1 hour. Subsequently, the cells were stained with fluorescently labeled anti-SOX2 antibodies (Cat. No. 656110, BioLegend, Inc.) and fluorescently labeled anti-OCT4 antibodies (Cat. No. 653703, BioLegend, Inc.) and fluorescently labeled anti-Nanog antibodies (Cat. No. 674010, BioLegend, Inc.) at 4° C. for 30 minutes to 1 hour. After washed once with 3% FBS (fetal bovine serum)/PBS, the cells were made to pass through a cell strainer. The resulting cells were analyzed on FACSVerse. A control test was conducted using cells that were treated in the same way except for reacting, instead of the above three antibodies (fluorescently labeled anti-SOX2 antibody, fluorescently labeled anti-OCT4 antibody, fluorescently labeled anti-Nanog antibody), with three fluorescently labeled isotype control antibodies (Cat. No. 400129, Cat. No. 400314, Cat. No. 400136; BioLegend, Inc.) corresponding to each of the above three antibodies.

[3] = test system: human iPS cells (TkDN4-M cell lines); assay: Number of dead cells, Cytotoxicity LDH Assay Kit-WST, Day 1 of suspension culture; settings: 10 μM CCG-1423, 2.5 μM Y-27632, Day 1 of culture, FIG. 2
Procedure: Human iPS cells that had been cultured using the protocol of Example 1 were treated with Accutase for 3 to 5 minutes and were detached and dispersed to single cells. The resulting cells were suspended in Essential 8™ culture medium containing a final concentration of 5 mg/mL of BSA (Wako Pure Chemical Industries, Ltd.) and a final concentration of 2.5 μM of Y-27632 (Wako Pure Chemical Industries, Ltd.), and a portion thereof was stained with trypan blue and the number of cells was counted. The cell suspension was prepared so as to contain 2×10^5 cells per ml. Separately, the cell aggregation promoter was adjusted so that the final concentration of CCG-1423 (Cayman, 10010350) was 4.55 mg/mL (10 mM), then the adjusted cell aggregation promoter was added to the cell suspension so that the final concentration of CCG-1423 was 10 μM. Then the cells were seeded at a ratio of 1.3 mL/well in a 12-well plate for suspension culture (Sumitomo Bakelite Co., Ltd.). […]
At the next day after the start of culture (Day 1 of culture), images were obtained by phase contrast microscopy, and the number of dead cells was calculated with Cytotoxicity LDH Assay Kit-WST (Peer Chemistry Research Institute, Inc.).

[4] = test system: human iPS cells (TkDN4-M cell lines); assay: Glucose consumption of suspension culture (biosensor BF-5iD); settings: Day 1 to Day 5 of culture, CCG-1423 added condition, FIG. 4
Procedure: A cell suspension was prepared in the same manner as in Example 2, and separately, the cell aggregation promoter was adjusted so that the final concentration of CCG-1423 (same as above) was 4.55 mg/mL (10 mM), then the adjusted cell aggregation promoter was added to the cell suspension so that the final concentration of CCG-1423 was 10 μM, and the cells were seeded at a ratio of 4 mL/well in a 6-well plate for suspension culture (Sumitomo Bakelite Co., Ltd.). The cell-seeded plate was subjected to a swirling culture on a rotary shaker (OPTIMA, Inc.) at a speed of 90 rpm along the horizontal plane to draw a circle with a swirling width (diameter) of 25 mm and cells were cultured in suspension under a condition at 5% CO2 and 37° C. […] While 208 cell aggregates in images obtained at Day 1 of culture being observed and compared using a micrograph scale, the width (referred to as “φ”) of the widest portion of each cell aggregate was measured, distribution thereof was examined, and average±standard deviation was calculated. The concentration of glucose contained in the culture supernatant collected at the time of culture medium exchange was measured with biosensor BF-5iD (Prince Measuring Equipment Co., Ltd.) to calculate glucose consumption.

[5] = test system: human iPS cells (TkDN4-M cell lines); assay: Cell aggregation assay, suspension culture, phase contrast microscopy at Day 1; settings: 10 μM CCG-1423, 2.5 μM Y-27632, Day 1 of culture, 12-well plate, FIG. 1
Procedure: TkDN4-M cell lines (Institute of Medical Science, The University of Tokyo) were used as human iPS cells. Human iPS cells were seeded on cell culture dishes coated with Vitronectin (Thermo Fisher Scientific Co., Ltd.) and subjected to a maintenance culture using Essential 8™ (Thermo Fisher Scientific Co., Ltd.) as the culture medium. Accutase (Thermo Fisher Scientific Co., Ltd.) was used as a cell detachment agent during passage. In addition, when the cells were seeded, Y-27632 (Wako Pure Chemical Industries, Ltd.) at a concentration of 10 μM was added to a culture medium. The culture medium was changed every day. For experiments, human iPS cells (the number of passage was 50 or less) were used.
Human iPS cells that had been cultured using the protocol of Example 1 were treated with Accutase for 3 to 5 minutes and were detached and dispersed to single cells. The resulting cells were suspended in Essential 8™ culture medium containing a final concentration of 5 mg/mL of BSA (Wako Pure Chemical Industries, Ltd.) and a final concentration of 2.5 μM of Y-27632 (Wako Pure Chemical Industries, Ltd.), and a portion thereof was stained with trypan blue and the number of cells was counted. The cell suspension was prepared so as to contain 2×10^5 cells per ml. […]

[6] = test system: human iPS cells (TkDN4-M cell lines); assay: Cell aggregate formation and size (widest portion) in swirling suspension culture, phase contrast microscopy; settings: for Number of cell aggregates by size / Percentage of cell aggregates by size: CCG-1423 added
Procedure: A cell suspension was prepared in the same manner as in Example 2, and separately, the cell aggregation promoter was adjusted so that the final concentration of CCG-1423 (same as above) was 4.55 mg/mL (10 mM), then the adjusted cell aggregation promoter was added to the cell suspension so that the final concentration of CCG-1423 was 10 μM, and the cells were seeded at a ratio of 4 mL/well in a 6-well plate for suspension culture (Sumitomo Bakelite Co., Ltd.). The cell-seeded plate was subjected to a swirling culture on a rotary shaker (OPTIMA, Inc.) at a speed of 90 rpm along the horizontal plane to draw a circle with a swirling width (diameter) of 25 mm and cells were cultured in suspension under a condition at 5% CO2 and 37° C. After the next day of culture (Day 1 of culture), the culture medium was exchanged daily for a fresh culture medium (Essential 8™ culture medium containing BSA (Wako Pure Chemical Industries, Ltd.) at a final concentration of 5 mg/mL), and the culture continued until 5 days after the start of culture. A control test was conducted by culturing in the same way except for using CCG-1423 and Y-27632 free culture media. Images were obtained by phase contrast microscopy every day during culture. While 208 cell aggregates in images obtained at Day 1 of culture being observed and compared using a micrograph scale, the width (referred to as “φ”) of the widest portion of each cell aggregate was measured, distribution thereof was examined, and average±standard deviation was calculated. The concentration of glucose contained in the culture supernatant collected at the time of culture medium exchange was measured with biosensor BF-5iD (Prince Measuring Equipment Co., Ltd.) to calculate glucose consumption.

[7] = Day 1 of culture, 10 μM CCG-1423
[8] = size range 40- μm, Day 1 of culture
[9] = size range 60- μm, Day 1 of culture
[10] = size range 80- μm, Day 1 of culture
[11] = size range 100- μm, Day 1 of culture
[12] = size range 120- μm, Day 1 of culture
[13] = size range 140- μm, Day 1 of culture
[14] = size range 160- μm, Day 1 of culture
[15] = size range 180- μm, Day 1 of culture
[16] = size range 200- μm, Day 1 of culture
[17] = size range 220- μm, Day 1 of culture
[18] = size range 240- μm, Day 1 of culture
[19] = size range 260- μm, Day 1 of culture
[20] = size range 280- μm, Day 1 of culture
[21] = size range 300- μm, Day 1 of culture

With `CC(ONC(=O)c1cc(C(F)(F)F)cc(C(F)(F)F)c1)C(=O)Nc1ccc(Cl)cc1` (stereo not drawn) [CCG-1423, N-[2-[4(4-chlorophenyl)amino]-1-methyl-2-oxoethoxy]-3,5-bis(trifluoromethyl)-benzamide] the “proliferation of the number of seeded cells (8×10^5 cells/well)” value [1] was “approximately 8.5 fold”, the “percentage of cells positive for Nanog” value [2] was ≥ 99% and the “percentage of cells positive for OCT4” value [2] was ≥ 97%. The “percentage of cells positive for SOX2” value [2] was ≥ 99%, the “number of dead cells compared to the control test (0 μM CCG-1423)” value [3] was “reduced” and the glucose consumption [4] was “increased daily”. For the same molecule, the “cell aggregation compared to the control test (0 μM CCG-1423)” value [5] was “aggregation was promoted”, the “cell aggregate formation after seeding to Day 1 of culture” value ([6]; 10 μM CCG-1423, 6-well plate, FIG. 3) was “cell aggregates were formed” and the “cell aggregates on continued culture to Day 5” value ([6]; 10 μM CCG-1423 until Day 1, then medium exchanged daily, Day 1 to Day 5, FIG. 3) was “cell aggregates were expanded”. The “percentage of cell aggregates with size (diameter) 60 μm or more and 300 μm or less” value [6, 7] was 99.5%, the “percentage of cell aggregates with size (diameter) 80 μm or more and 300 μm or less” value [6, 7] was 98.5% and the “percentage of cell aggregates with size (diameter) 100 μm or more and 300 μm or less” value [6, 7] was 98.5%. The “average±standard deviation of cell aggregate size (diameter)” value ([6]; Day 1 of culture, 10 μM CCG-1423, 208 cell aggregates) was 171.3±22.8 μm, the “percentage of cell aggregates with size (diameter) 40 μm or more and 300 μm or less” value ([6]; Day 1 of culture, 10 μM CCG-1423, to total cell aggregate count) was 100% and the “Number of cell aggregates by size” value [6, 8] was 1. The “Percentage of cell aggregates by size” value [6, 8] was 0.5%, the “Number of cell aggregates by size” value [6, 9] was 2 and the “Percentage of cell aggregates by size” value [6, 9] was 1.0%. The “Number of cell aggregates by size” value [6, 10] was 0, the “Percentage of cell aggregates by size” value [6, 10] was 0.0% and the “Number of cell aggregates by size” value [6, 11] was 2. The “Percentage of cell aggregates by size” value [6, 11] was 1.0%, the “Number of cell aggregates by size” value [6, 12] was 6 and the “Percentage of cell aggregates by size” value [6, 12] was 2.9%. For the same molecule, the “Number of cell aggregates by size” value [6, 13] was 39, the “Percentage of cell aggregates by size” value [6, 13] was 18.8% and the “Number of cell aggregates by size” value [6, 14] was 87. For the same molecule, the “Percentage of cell aggregates by size” value [6, 14] was 41.8%, the “Number of cell aggregates by size” value [6, 15] was 60 and the “Percentage of cell aggregates by size” value [6, 15] was 28.8%. The “Number of cell aggregates by size” value [6, 16] was 9, the “Percentage of cell aggregates by size” value [6, 16] was 4.3% and the “Number of cell aggregates by size” value [6, 17] was 2. For the same molecule, the “Percentage of cell aggregates by size” value [6, 17] was 1.0%, the “Number of cell aggregates by size” value [6, 18] was 0 and the “Percentage of cell aggregates by size” value [6, 18] was 0.0%. The “Number of cell aggregates by size” value [6, 19] was 0, the “Percentage of cell aggregates by size” value [6, 19] was 0.0% and the “Number of cell aggregates by size” value [6, 20] was 0. For the same molecule, the “Percentage of cell aggregates by size” value [6, 20] was 0.0%, the “Number of cell aggregates by size” value [6, 21] was 0 and the “Percentage of cell aggregates by size” value [6, 21] was 0.0%.
